pIC50: −log10 of the molar value. Read-outs that look alike come from different tables or passages of the source. Each block holds one compound with its values, some of them ahead of it. Where no end group is shown, it is not given here.
Key:
[1] = system: HLA-A*2401; assay: Competition based cellular binding assay, HLA-A*2401 (B-cell line VIJF); set-up: species or system human; settings: HLA-A*2401, IC50 category
[2] = system: HLA-A*2401; assay: Stability of peptide-HLA complex, binding at 4° C. and 20° C., HLA-A*2401; set-up: species or system human; settings: HLA-A*2401; IC50 at 20° C. vs 4° C.
Method: Stability of other peptide-HLA complexes was preferably determined as follows. […] Peptides of >50% of the initial complexes was lost within 2 hours were considered unstable. […] The rest was designated as unstable peptide binding.
Peptides 8-11 residues in length were selected based on typical anchor residues for HLA-A*0101, A*0301, A*1101 and HLA-A*2401 (Rammensee H G et al). The capacity of peptides to bind was tested in a competition based cellular binding assay as previously described (van der Burg S H et al 1995). FL-labeled reference peptides were synthesized as Cys-derivative (van der Burg S H et al 1995). Fluorescence labeled reference peptides used were: YLEPAC(FL)AK (SEQ ID NO: 87) (HLA-A*0101) and KVFPC(FL)ALINK (SEQ ID NO: 88) (HLA-A*1101) (Sette A et al), KVFPC(FL)ALINK (SEQ ID NO: 89) (HLAA*0301) (van der Burg S H et al 1995) and RYLKC(FL)QQLL (SEQ ID NO: 90) (A*2401) (Dai L C et al). B-cell lines used are: CAA (A*0101), EKR (A*0301), BVR (A*1101), VIJF (A*2401). The relative binding capacity of the peptides is expressed as the peptide concentration to inhibit 50% (1050) of the binding of the reference peptide. […] Peptide stabilization for HLA-A*0201 was performed as previously described (van der Burg S H et al, 1996). Peptides of >50% of the initial complexes was lost within 2 hours were considered unstable. Stability of other peptide-HLA complexes was determined as follows. Peptide binding was performed at 4° C. and 20° C. and 1050 were determined. […] The rest was designated as unstable peptide binding.

[3] = system: proteasome; assay: Proteasome processing, summarised over proteasome types (Table 5); assay type: biochemical; settings: 30 residue long precursor peptides
Method: (§1) In the context of the invention, “being inefficiently processed by a proteasome” preferably means that within the first hour of digestion by a proteasome less than 1% of total digested peptide is found. The processing by a proteasome is preferably assessed by incubating a purified proteasome, more preferably a human proteasome with a peptide comprising the potential CTL epitope (30 amino acid length approximately) in a proteasome digestion buffer during at least one hour at 37° C. The reaction is subsequently stopped by adding trifluoroacetic acid. Analysis of the digested peptides is performed with electrospray ionization mass spectrometry (see example 1). Even more preferably, the human proteasome is an immunoproteasome from B-LCL JY cells (Kessler J H et al. 2001).
(§2) 20S immuno-proteasomes were purified from a mouse B-cell line (RMA) and a human B-LCL cell line (JY) and 20S household proteasomes were purified from human tumor cell line (HeLa) as described (Kessler J H et al 2001). To assess kinetics, digestions were performed with different incubation periods as indicated. Briefly, peptides containing the (potential) CTL epitopes (30 mers, 20 μg) were incubated with 1 μg of purified proteasome at 37° C. for 1 h, 4 h and 24 h in 300 μl proteasome digestion buffer, trifluoroacetic acid (30 μl) was added to stop the digestion and samples were stored at −20° C. before mass spectrometric analysis. Electrospray ionization mass spectrometry was performed on a hybrid quadrupole time-of-flight mass spectromter, a Q-TOF (Micromass), equipped with an on-line nanoelectrospray interface with an approximate flow rate of […] as described (Kessler J H et al 2001). The peaks in the mass spectrum were searched in the digested precursor peptide using the Biolynx/proteins software (Micromass) supplied with the mass spectrometer. The intensity of the peaks in the mass spectra was used to establish the relative amounts of peptides generated after proteasome digestion. The relative amounts of the peptides are given as a percentage of the total amount of peptide digested by the proteasome at the indicated incubation time. Major cleavage sites are defined as more than >1% of total digested peptide within the first hour.

[4] = biological target: T1, HLA-A*0201 (Homo sapiens, UniProt P04439, D140Y/D185E/D98H/E176V/E277Q/G131W/G231S/I119V/I121R/I166T/I218V/L300P/L318F/N151K/N90K/P208A/P217A/Q86G/Q94H/R138H/R169H/T345S); assay: Peptide stabilization for HLA-A*0201; assay type: binding; settings: for Peptide Binding Stability: HLA-A*0201, p53 peptides
[5] = biological target: T2, 20S immuno-proteasomes from mouse B-cell line (RMA) (Mus musculus, UniProt O35955+P28063+P28076); assay: In vitro proteasome mediated digestion of 30-mers, mass spectrometry, immunoproteasome RMA; assay type: biochemical; settings: 30 residue long precursor peptides
T2 construct: 20S immuno-proteasomes were purified from a mouse B-cell line (RMA); endogenous in cells; host or cells: RMA cells; 20S proteasome purified from them
In short: (§3)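 30-mer peptides (20 μg) digested with 1 μg purified 20S proteasome (JY or RMA immunoproteasome, HeLa household proteasome) at 37° C for 1, 4 and 24 h, stopped with TFA. Nano-ESI Q-TOF MS; fragments quantified by peak intensity as percent of total digested peptide per time point; major cleavage site >1% within first hour.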

[6] = biological target: T3, 20S immuno-proteasomes from human B-LCL cell line (JY) (Homo sapiens, UniProt P28062+P28065+P40306); assay: In vitro proteasome mediated digestion of 30-mers, mass spectrometry, immunoproteasome JY; assay type: biochemical; settings: 30 residue long precursor peptides
T3 construct: purified from a mouse B-cell line (RMA) and a human B-LCL cell line (JY); endogenous in cells; host or cells: B-LCL JY cells; 20S proteasome purified from them
In short: as §3

[7] = biological target: T4, 20S household proteasomes from human tumor cell line (HeLa) (Homo sapiens, UniProt P28072+P28074+Q99436); assay: In vitro proteasome mediated digestion of 30-mers, mass spectrometry, household proteasome HeLa; assay type: biochemical; settings: 30 residue long precursor peptides
T4 construct: 20S household proteasomes were purified from human tumor cell line (HeLa); endogenous in cells; host or cells: HeLa cells; 20S proteasome purified from them
Method: as §1, §2

[8] = biological target: T5, HLA-A*0101 (Homo sapiens, UniProt P04439, A114D/A174V/A182V/D101N/D185E/E176A/E190D/L180R/Q94H/R68K/S129P/T187R/V100A/V91M/W191G); assay: Competition based cellular binding assay, HLA-A*0101 (B-cell line CAA)
T5 construct: B-cell lines used are: CAA (A*0101), EKR (A*0301), BVR (A*1101), VIJF (A*2401); endogenous in cells; host or cells: B-cell line CAA

[9] = biological target: T5, HLA-A*0101; assay: Stability of peptide-HLA complex, binding at 4° C. and 20° C., HLA-A*0101; settings: for HLA binding Stability (Table 5): HLA type A1; for Peptide Binding Stability: HLA-A*0101, IC50 at 20° C. vs 4° C.
[10] = biological target: T1, HLA-A*0201; settings: binding capacity previously determined, read-out: Peptide Binding Affinity; cited from earlier work
[11] = biological target: T3, 20S immuno-proteasomes from human B-LCL cell line (JY); settings: PRAME peptides (Kessler J H et al 2001); cited from earlier work
[12] = HLA-A*0101, IC50 category, read-out: Peptide Binding Affinity

pIC50 ([1]; read-out: Peptide Binding Affinity): > 5.30
Compound: CSCC[C@H](NC(=O)[C@H](CCCCN)NC(=O)[C@H](CC(N)=O)NC(=O)[C@H](CC(C)C)NC(=O)[C@H](C)NC(=O)[C@@H]1CCCN1C(=O)[C@H](CO)NC(=O)[C@H](Cc1ccc(O)cc1)NC(=O)[C@@H](N)[C@@H](C)O)C(=O)N[C@@H](Cc1ccccc1)C(=O)O [p53 125-134]
Peptide Binding Affinity [1]: high | Peptide Binding Stability [2]: + (Stable peptides displayed IC50 at 20 °C that deviated <2 times of the IC50 at 4° C.) | generation / processing by household and immunoproteasomes, in words [3]: not/inefficiently processed

capacity to form stable peptide-HLA-A*0201 complexes, in words [4]: weak | Peptide Binding Stability [4]: <2 h
Compound: CC(C)[C@H](NC(=O)[C@H](CCCNC(=N)N)NC(=O)[C@@H](NC(=O)CNC(=O)[C@@H]1CCCN1C(=O)[C@@H]1CCCN1C(=O)[C@@H]1CCCN1C(=O)[C@@H](NC(=O)[C@@H](N)CO)[C@@H](C)O)[C@@H](C)O)C(=O)O [p53 149-157]
HLA binding Stability (Table 5) ([4]; HLA type A2, class symbol): − (Peptides of >50% of the initial complexes was lost within 2 hours were considered unstable) | Proteasomal Cleavage of C-terminus, IP (RMA) [5]: + (Major cleavage sites are defined as more than >1% of total digested peptide within the first hour) | Proteasomal Cleavage of C-terminus, IP (JY) [6]: + (Major cleavage sites are defined as more than >1% of total digested peptide within the first hour) | Proteasomal Cleavage of C-terminus, HH (HeLa) [7]: + (Major cleavage sites are defined as more than >1% of total digested peptide within the first hour) | generation / processing by household and immunoproteasomes, in words [3]: efficiently generated

Compound: CC[C@H](C)[C@H](NC(=O)[C@H](CC(C)C)NC(=O)[C@H](Cc1c[nH]cn1)NC(=O)[C@H](CCC(N)=O)NC(=O)[C@@H]1CCCN1C(=O)[C@@H]1CCCN1C(=O)[C@H](C)NC(=O)[C@H](CC(C)C)NC(=O)CN)C(=O)N[C@@H](CCCNC(=N)N)C(=O)N[C@H](C(=O)O)C(C)C [p53 187-197]
capacity to form stable peptide-HLA-A*0201 complexes, in words [4]: forms stable peptide-HLA complexes | Peptide Binding Stability [4]: 6 h | Proteasomal Cleavage of C-terminus, IP (RMA) [5]: + (Major cleavage sites are defined as more than >1% of total digested peptide within the first hour) | Proteasomal Cleavage of C-terminus, IP (JY) [6]: + (Major cleavage sites are defined as more than >1% of total digested peptide within the first hour) | Proteasomal Cleavage of C-terminus, HH (HeLa) [7]: + (Major cleavage sites are defined as more than >1% of total digested peptide within the first hour) | generation / processing by household and immunoproteasomes, in words [3]: efficiently generated

pIC50 ([8]; HLA type A1, read-out: HLA binding Affinity (Table 5)): 4.30 to 4.82 | pIC50 [8, 12]: 4.82 to 5.30
Compound: CC[C@H](C)[C@H](NC(=O)[C@@H](NC(=O)[C@@H](NC(=O)[C@@H](N)CS)[C@@H](C)O)[C@@H](C)O)C(=O)N[C@@H](Cc1c[nH]cn1)C(=O)N[C@@H](Cc1ccc(O)cc1)C(=O)N[C@@H](CC(N)=O)C(=O)N[C@@H](Cc1ccc(O)cc1)C(=O)O [p53 229-236]
HLA binding Stability (Table 5) [9]: − (The rest was designated as unstable peptide binding.) | Peptide Binding Stability [9]: − (The rest was designated as unstable peptide binding.)

Compound: CC(C)C[C@H](NC(=O)[C@@H](N)CC(C)C)C(=O)NCC(=O)N[C@@H](CCCNC(=N)N)C(=O)N[C@@H](CC(N)=O)C(=O)N[C@@H](CO)C(=O)N[C@@H](Cc1ccccc1)C(=O)N[C@@H](CCC(=O)O)C(=O)N[C@H](C(=O)O)C(C)C [p53 264-272]
generation / processing by household and immunoproteasomes, in words [3]: not well processed

Compound: CC(C)C[C@H](NC(=O)[C@@H](NC(=O)[C@H](Cc1ccccc1)NC(=O)[C@H](Cc1ccc(O)cc1)NC(=O)[C@H](CCC(=O)O)NC(=O)CNC(=O)[C@H](CC(=O)O)NC(=O)[C@H](CC(C)C)NC(=O)[C@@H]1CCCN1)[C@@H](C)O)C(=O)O [p53 322-330]
Proteasomal Cleavage of C-terminus, IP (RMA) [5]: + (Major cleavage sites are defined as more than >1% of total digested peptide within the first hour) | Proteasomal Cleavage of C-terminus, IP (JY) [6]: + (Major cleavage sites are defined as more than >1% of total digested peptide within the first hour) | Proteasomal Cleavage of C-terminus, HH (HeLa) [7]: + (Major cleavage sites are defined as more than >1% of total digested peptide within the first hour) | pIC50 [10]: 4.82 to 5.30

Compound: ALYVDSLFFL [PRA 300-309]
Proteasomal Cleavage of C-terminus, IP (JY) [11]: + (Major cleavage sites are defined as more than >1% of total digested peptide within the first hour)

Compound: SLLQHLIGL [PRA 425-433]
Proteasomal Cleavage of C-terminus, IP (JY) [11]: + (Major cleavage sites are defined as more than >1% of total digested peptide within the first hour)

Compound: SLYSFPEPEA [PRA 142-151]
Proteasomal Cleavage of C-terminus, IP (JY) [11]: + (Major cleavage sites are defined as more than >1% of total digested peptide within the first hour)

Compound: VLDGLDVLL [PRA 100-108]
Proteasomal Cleavage of C-terminus, IP (JY) [11]: + (Major cleavage sites are defined as more than >1% of total digested peptide within the first hour)

HLA binding Affinity (Table 5) ([8]; HLA type A1): int | pIC50 [8, 12]: 4.82 to 5.30
Compound: YLDDRNTFRH [p53 205-214]
HLA binding Stability (Table 5) [9]: + (Stable peptides displayed IC50 at 20 °C that deviated <2 times of the IC50 at 4° C.) | Peptide Binding Stability [9]: + (Stable peptides displayed IC50 at 20 °C that deviated <2 times of the IC50 at 4° C.)
